# Assays:
# [1] = molecular target: T1, Interstitial collagenase (Homo sapiens, UniProt P03956); assay: Inhibition of human recombinant MMP1 using MOCAc-Lys-Pro-Leu-Gly-Leu-A2pr(Dnp)-Ala-Arg-N2 as substrate preincubated for 15 mins followed by substrate addition and measured after 120 mins by fluorescence based assay
# T1 sequence (P03956 whole entry): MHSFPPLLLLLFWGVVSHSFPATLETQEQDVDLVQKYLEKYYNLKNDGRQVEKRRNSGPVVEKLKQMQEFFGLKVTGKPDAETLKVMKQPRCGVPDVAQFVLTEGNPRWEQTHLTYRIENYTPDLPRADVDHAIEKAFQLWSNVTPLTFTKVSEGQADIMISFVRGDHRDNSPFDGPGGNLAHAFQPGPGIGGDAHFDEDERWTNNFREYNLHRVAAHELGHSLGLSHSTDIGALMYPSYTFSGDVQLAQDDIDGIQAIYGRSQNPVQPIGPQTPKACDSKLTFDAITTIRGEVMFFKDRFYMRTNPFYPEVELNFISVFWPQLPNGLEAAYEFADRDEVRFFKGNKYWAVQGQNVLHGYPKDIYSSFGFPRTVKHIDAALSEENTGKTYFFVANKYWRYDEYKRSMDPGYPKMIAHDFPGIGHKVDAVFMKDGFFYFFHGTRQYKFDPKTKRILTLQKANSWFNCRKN
# [2] = Chemical stability of the compound in phosphate buffer at pH 7.4 assessed as residual rate incubated for 2 weeks by HPLC analysis; format: physicochemical; conditions: read-out: Stability
# [3] = Metabolic stability in human serum assessed as parent compound remaining measured for 4 hrs; format: ADME, cell-free; conditions: read-out: Stability
# [4] = molecular target: T2, 72 kDa type IV collagenase (Homo sapiens, UniProt P08253); assay: Binding affinity to human MMP2 assessed as dissociative half-life
# Target sequence in this assay (P08253 110-660 limits assumed): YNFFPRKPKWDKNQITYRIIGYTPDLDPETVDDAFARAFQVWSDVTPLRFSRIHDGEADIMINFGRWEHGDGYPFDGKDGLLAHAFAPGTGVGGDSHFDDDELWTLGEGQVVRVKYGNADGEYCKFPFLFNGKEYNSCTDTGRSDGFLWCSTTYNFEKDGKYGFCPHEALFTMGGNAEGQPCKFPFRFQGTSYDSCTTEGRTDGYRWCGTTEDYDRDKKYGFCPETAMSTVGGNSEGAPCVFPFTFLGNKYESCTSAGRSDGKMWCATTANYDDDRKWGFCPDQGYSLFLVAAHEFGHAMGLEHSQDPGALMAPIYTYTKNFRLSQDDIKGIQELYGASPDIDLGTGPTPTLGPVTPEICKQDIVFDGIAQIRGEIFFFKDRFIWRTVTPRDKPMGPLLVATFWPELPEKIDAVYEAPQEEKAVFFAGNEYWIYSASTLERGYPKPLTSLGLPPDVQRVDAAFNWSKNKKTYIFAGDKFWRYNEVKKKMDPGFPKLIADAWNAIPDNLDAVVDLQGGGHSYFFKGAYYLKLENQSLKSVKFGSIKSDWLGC
# [5] = Chemical stability of the compound in phosphate buffer at pH 4 assessed as residual rate incubated for 2 weeks by HPLC analysis; format: physicochemical; conditions: read-out: Stability
# [6] = molecular target: T2, 72 kDa type IV collagenase; assay: Inhibition of human recombinant MMP2 using MOCAc-Lys-Pro-Leu-Gly-Leu-A2pr(Dnp)-Ala-Arg-N2 as substrate preincubated for 15 mins followed by substrate addition and measured after 120 mins by fluorescence based assay
# Target sequence in this assay (P08253 whole entry): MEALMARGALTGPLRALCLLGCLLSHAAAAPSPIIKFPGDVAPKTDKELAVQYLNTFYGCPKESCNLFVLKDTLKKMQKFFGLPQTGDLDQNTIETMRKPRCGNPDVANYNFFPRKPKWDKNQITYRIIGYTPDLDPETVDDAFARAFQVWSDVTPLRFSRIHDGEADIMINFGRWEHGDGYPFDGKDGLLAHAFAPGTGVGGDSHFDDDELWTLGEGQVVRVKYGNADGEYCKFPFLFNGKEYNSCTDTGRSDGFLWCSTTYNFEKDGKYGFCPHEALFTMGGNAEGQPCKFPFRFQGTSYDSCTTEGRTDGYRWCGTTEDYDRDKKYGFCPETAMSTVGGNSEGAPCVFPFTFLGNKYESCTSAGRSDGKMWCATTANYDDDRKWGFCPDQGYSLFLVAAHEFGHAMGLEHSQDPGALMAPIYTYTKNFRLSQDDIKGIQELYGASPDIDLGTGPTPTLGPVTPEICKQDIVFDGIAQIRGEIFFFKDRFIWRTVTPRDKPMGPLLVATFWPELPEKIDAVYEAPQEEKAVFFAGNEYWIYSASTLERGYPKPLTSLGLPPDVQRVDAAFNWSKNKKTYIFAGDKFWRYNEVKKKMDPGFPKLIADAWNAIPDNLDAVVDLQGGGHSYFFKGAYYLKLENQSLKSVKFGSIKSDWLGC
# [7] = molecular target: Matrix metalloproteinase-9 (Homo sapiens, UniProt P14780); assay: Inhibition of human recombinant MMP9 using MOCAc-Lys-Pro-Leu-Gly-Leu-A2pr(Dnp)-Ala-Arg-N2 as substrate preincubated for 15 mins followed by substrate addition and measured after 120 mins by fluorescence based assay
# Matrix metalloproteinase-9, sequence (P14780 whole entry): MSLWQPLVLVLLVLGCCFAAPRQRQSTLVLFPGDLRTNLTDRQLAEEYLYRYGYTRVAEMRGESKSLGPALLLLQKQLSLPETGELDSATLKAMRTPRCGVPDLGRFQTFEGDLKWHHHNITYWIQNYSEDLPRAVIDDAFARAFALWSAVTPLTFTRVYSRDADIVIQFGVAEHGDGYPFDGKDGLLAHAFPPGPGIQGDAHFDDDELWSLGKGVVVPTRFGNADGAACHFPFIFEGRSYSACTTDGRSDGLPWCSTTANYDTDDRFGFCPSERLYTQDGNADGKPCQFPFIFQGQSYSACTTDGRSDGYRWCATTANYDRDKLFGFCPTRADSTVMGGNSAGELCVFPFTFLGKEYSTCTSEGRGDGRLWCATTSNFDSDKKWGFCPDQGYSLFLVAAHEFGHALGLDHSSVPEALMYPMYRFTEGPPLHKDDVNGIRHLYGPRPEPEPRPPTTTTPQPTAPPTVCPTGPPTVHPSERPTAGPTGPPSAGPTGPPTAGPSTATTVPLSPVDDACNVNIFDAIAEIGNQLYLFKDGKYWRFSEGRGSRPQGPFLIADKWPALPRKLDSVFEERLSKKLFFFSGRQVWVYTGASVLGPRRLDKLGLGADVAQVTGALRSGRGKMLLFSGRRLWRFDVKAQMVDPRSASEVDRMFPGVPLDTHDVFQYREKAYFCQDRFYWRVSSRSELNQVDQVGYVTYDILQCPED
# [8] = molecular target: T3, MMP-2/MMP-13 (Homo sapiens) (UniProt P08253+P45452); assay: Selectivity ratio of Ki for recombinant human MMP13 to Ki for recombinant human MMP2; format: protein assay
# T3 sequence (P08253 whole entry, looked up, other chains not shown): as the sequence (P08253 whole entry) above
# [9] = molecular target: Stromelysin-1 (Homo sapiens, UniProt P08254); assay: Inhibition of human recombinant MMP3 using MOCAc-Lys-Pro-Leu-Gly-Leu-A2pr(Dnp)-Ala-Arg-N2 as substrate preincubated for 15 mins followed by substrate addition and measured after 120 mins by fluorescence based assay
# Stromelysin-1, sequence (P08254 whole entry): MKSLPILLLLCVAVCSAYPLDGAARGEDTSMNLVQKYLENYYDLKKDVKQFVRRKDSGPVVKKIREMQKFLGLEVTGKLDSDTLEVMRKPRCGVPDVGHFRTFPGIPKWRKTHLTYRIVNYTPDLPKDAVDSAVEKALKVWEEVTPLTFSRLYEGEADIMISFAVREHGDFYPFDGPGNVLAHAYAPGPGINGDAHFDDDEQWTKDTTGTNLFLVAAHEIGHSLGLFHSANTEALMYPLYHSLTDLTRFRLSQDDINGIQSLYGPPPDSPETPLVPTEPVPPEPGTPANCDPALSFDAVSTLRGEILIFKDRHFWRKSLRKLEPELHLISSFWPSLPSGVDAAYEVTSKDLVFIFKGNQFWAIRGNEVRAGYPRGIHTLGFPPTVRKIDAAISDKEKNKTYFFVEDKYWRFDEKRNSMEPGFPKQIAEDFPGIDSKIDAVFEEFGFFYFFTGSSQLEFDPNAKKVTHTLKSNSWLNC
# [10] = molecular target: T3, MMP-2/MMP-13 (Homo sapiens); assay: Selectivity ratio of IC50 for recombinant human MMP13 to IC50 for recombinant human MMP2; format: protein assay
# [11] = species: Homo sapiens; assay: Selectivity ratio of Ki for recombinant human MMP12 to Ki for recombinant human MMP2
# [12] = species: Homo sapiens; assay: Selectivity ratio of Ki for recombinant human MMP8 to Ki for recombinant human MMP2
# [13] = molecular target: MMP-2/MMP-14 (Homo sapiens) (UniProt P50281+P08253); assay: Selectivity ratio of Ki for recombinant human MMP14 to Ki for recombinant human MMP2; format: protein assay
# [14] = molecular target: MMP-2/MMP-9 (Homo sapiens) (UniProt P08253+P14780); assay: Selectivity ratio of Ki for recombinant human MMP9 to Ki for recombinant human MMP2; format: protein assay
# [15] = molecular target: Matrix metalloproteinase-14 (Homo sapiens, UniProt P50281); assay: Inhibition of human recombinant MMP14 using MOCAc-Lys-Pro-Leu-Gly-Leu-A2pr(Dnp)-Ala-Arg-N2 as substrate preincubated for 15 mins followed by substrate addition and measured after 120 mins by fluorescence based assay
# [16] = Chemical stability of the compound in phosphate buffer at pH 9 assessed as residual rate incubated for 2 weeks by HPLC analysis; format: physicochemical; conditions: read-out: Stability
# [17] = molecular target: T4, Macrophage metalloelastase (Homo sapiens, UniProt P39900); assay: Inhibition of human recombinant MMP12 using MOCAc-Lys-Pro-Leu-Gly-Leu-A2pr(Dnp)-Ala-Arg-N2 as substrate preincubated for 10 to 15 mins followed by substrate addition and measured after 60 to 120 mins by fluorescence based assay; conditions: read-out: IC50
# T4 sequence (P39900 whole entry): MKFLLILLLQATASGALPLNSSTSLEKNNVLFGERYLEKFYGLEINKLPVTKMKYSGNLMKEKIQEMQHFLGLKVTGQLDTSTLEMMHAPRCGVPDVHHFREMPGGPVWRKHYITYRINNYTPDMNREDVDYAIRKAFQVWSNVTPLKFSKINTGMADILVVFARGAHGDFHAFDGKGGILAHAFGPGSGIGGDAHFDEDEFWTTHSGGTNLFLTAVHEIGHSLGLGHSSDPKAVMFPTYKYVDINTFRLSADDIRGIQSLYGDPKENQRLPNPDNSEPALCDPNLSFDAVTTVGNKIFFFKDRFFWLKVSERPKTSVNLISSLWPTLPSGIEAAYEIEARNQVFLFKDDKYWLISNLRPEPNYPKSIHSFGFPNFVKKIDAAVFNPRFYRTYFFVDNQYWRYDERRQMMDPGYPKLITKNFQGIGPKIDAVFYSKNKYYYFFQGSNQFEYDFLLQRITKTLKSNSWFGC
# [18] = molecular target: Neutrophil collagenase (Homo sapiens, UniProt P22894); assay: Inhibition of human recombinant MMP8 using MOCAc-Lys-Pro-Leu-Gly-Leu-A2pr(Dnp)-Ala-Arg-N2 as substrate preincubated for 15 mins followed by substrate addition and measured after 120 mins by fluorescence based assay
# Neutrophil collagenase, sequence (P22894 whole entry): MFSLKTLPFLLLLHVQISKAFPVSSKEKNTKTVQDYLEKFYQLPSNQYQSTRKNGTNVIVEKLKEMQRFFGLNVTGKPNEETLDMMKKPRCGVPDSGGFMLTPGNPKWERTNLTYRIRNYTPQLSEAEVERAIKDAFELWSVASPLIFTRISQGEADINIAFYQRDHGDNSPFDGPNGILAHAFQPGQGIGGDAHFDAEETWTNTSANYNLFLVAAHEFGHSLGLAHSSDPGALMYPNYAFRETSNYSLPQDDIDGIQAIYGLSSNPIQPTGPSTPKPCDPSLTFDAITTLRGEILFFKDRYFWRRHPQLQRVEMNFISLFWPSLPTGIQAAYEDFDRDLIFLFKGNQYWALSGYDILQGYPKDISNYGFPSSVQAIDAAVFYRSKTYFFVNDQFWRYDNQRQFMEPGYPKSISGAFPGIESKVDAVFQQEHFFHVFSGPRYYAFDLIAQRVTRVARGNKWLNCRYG
# [19] = molecular target: T4, Macrophage metalloelastase; assay: Inhibition of human recombinant MMP12 using MOCAc-Lys-Pro-Leu-Gly-Leu-A2pr(Dnp)-Ala-Arg-N2 as substrate preincubated for 15 mins followed by substrate addition and measured after 120 mins by fluorescence based assay
# [20] = molecular target: T5, Matrilysin (Homo sapiens, UniProt P09237); assay: Inhibition of human recombinant MMP7 using MOCAc-Lys-Pro-Leu-Gly-Leu-A2pr(Dnp)-Ala-Arg-N2 as substrate preincubated for 15 mins followed by substrate addition and measured after 120 mins by fluorescence based assay
# T5 sequence (P09237 whole entry): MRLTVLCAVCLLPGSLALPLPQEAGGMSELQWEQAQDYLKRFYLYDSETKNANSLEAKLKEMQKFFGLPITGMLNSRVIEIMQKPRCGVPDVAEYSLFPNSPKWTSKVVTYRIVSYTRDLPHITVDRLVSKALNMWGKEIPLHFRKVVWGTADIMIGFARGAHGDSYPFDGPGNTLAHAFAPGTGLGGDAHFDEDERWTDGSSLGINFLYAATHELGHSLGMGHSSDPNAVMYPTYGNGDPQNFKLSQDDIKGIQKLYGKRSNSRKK
# [21] = molecular target: T2, 72 kDa type IV collagenase; assay: Inhibition of human recombinant MMP2 using MOCAc-Lys-Pro-Leu-Gly-Leu-A2pr(Dnp)-Ala-Arg-N2 as substrate preincubated for 5 mins followed by substrate addition and measured after 120 mins by fluorescence based assay
# Target sequence in this assay (P08253 whole entry): as the sequence (P08253 whole entry) above
# [22] = molecular target: T2, 72 kDa type IV collagenase; assay: Inhibition of recombinant human MMP2 using MOCAc-Lys-Pro-Leu-Gly-Leu-A2pr(Dnp)-Ala-Arg-N2 as substrate preincubated for 10 to 15 mins followed by substrate addition and measured after 60 to 120 mins by fluorescence based assay
# Target sequence in this assay (P08253 whole entry): as above
# [23] = species: Homo sapiens; assay: Selectivity ratio of IC50 for recombinant human MMP12 to IC50 for recombinant human MMP2
# [24] = molecular target: Collagenase 3 (Homo sapiens, UniProt P45452); assay: Inhibition of human recombinant MMP13 using MOCAc-Lys-Pro-Leu-Gly-Leu-A2pr(Dnp)-Ala-Arg-N2 as substrate preincubated for 15 mins followed by substrate addition and measured after 120 mins by fluorescence based assay
# [25] = molecular target: MMP-1/MMP-2 (Homo sapiens) (UniProt P08253+P03956); assay: Selectivity ratio of Ki for recombinant human MMP1 to Ki for recombinant human MMP2; format: protein assay
# MMP-1/MMP-2 (Homo sapiens), sequence (P08253 whole entry, looked up, one chain of several): as the sequence (P08253 whole entry) above
# [26] = species: Homo sapiens; assay: Selectivity ratio of Ki for recombinant human MMP3 to Ki for recombinant human MMP2
structure (smiles),measurement,setting,value
CC(C)C[C@H](NC(=O)[C@@H]1C[C@H](N)CN1C(=O)CC[C@@H](NS(=O)(=O)c1ccc(NC(=O)c2ccc(C(N)=O)cc2)cc1)C(=O)O)C(=O)N(C)[C@@H](CCC(=O)O)C(=O)NCCCCC(N)=O,IC50,[1],270000 nM
same,remaining at 336 h,[2],99%
same,remaining at 4 h,[3],93.1%
same,T1/2,[4],4.42 h
same,remaining at 336 h,[5],98.7%
same,IC50,[6],0.22 nM
same,Ki,[7],1900 nM
same,Ratio Ki,[8],3200
same,Ki,[9],4900 nM
same,Ratio IC50,[10],1100
same,Ratio Ki,[11],5000
same,Ratio Ki,[12],53000
same,Ratio Ki,[13],2000
same,Ratio Ki,[14],56000
same,Ki,[15],68 nM
same,remaining at 336 h,[16],98.1%
same,IC50,[17],250 nM
same,IC50,[18],1800 nM
same,Ki,[19],170 nM
same,Ki,[20],150000 nM
same,IC50,[21],0.034 nM
same,Ki,[22],0.034 nM
same,Ratio IC50,[23],1100
same,Ki,[24],110 nM
same,Ratio Ki,[25],7.9e+06
same,Ratio Ki,[26],140000

# — ChEMBL document CHEMBL5316300, “Discovery of TP0597850: A Selective, Chemically Stable, and Slow Tight-Binding Matrix Metalloproteinase-2 Inhibitor with a Phenylbenzamide-Pentapeptide Hybrid Scaffold” (J Med Chem, 2023)
